Experimental data published in patent US9738639B2, “Pyrroloquinoline quinone lithium salt crystal and preparation method and application thereof” (SHANGHAI RI XIN BIOTECHNOLOGY CO., LTD., priority 2013, dated 2017).

Assays:
APP/PS1 transgenic mice = test: Morris water maze probe test in APP/PS1 transgenic mice; type: in vivo; conditions: for Adjusted average distance of approaching to platform / Swimming path, I quadrant occupancy of platform / first time of crossing platform / time spent of IV quadrant / time, I quadrant occupancy of platform / times of crossing platform: probe test on 5th day, n = 10
Protocol: 1. […] 2. APP/PS1 transgenic mice (Model Animal Research Center of Nanjing University, weights of mice are from 30 g to 40 g, male, totally 60 mice). Sixty mice are randomized to six groups (group 2 to group 7) with ten mice for each group. […] group: 0.15 mg/mL […] solution is obtained by grinding one tablet (5 mg) of […] into powder, followed by dissolved in 0.5% CMC (carboxymethylcellulose). Morris water maze (Experimental video analysis system of Morris water maze, JLBehv-MWMG, Shanghai Jiliang Technology Co., Ltd) Group 1 and group 2 are daily administrated by normal saline and group 3 to group 7 are daily administrated by drug solutions prepared above, with the dosage of 1 mL/100 g/day for continuous one month. From the fifth week, mice are training in Morris water maze, 30 minutes after drug administration. The training session lasts for 4 days. The probe test performed on the 5th day. The Morris water maze statistics software is used to automatically record and analyze the swimming trace in the quadrant, time spent and path in target or opposite quadrant occupancy and times of crossing platform. The data is indicated as average±standard deviation (x±SD). The analysis of variance for a single factor is used for data difference statistics. Difference between groups is determined by P<0.05.

[1] = Hygroscopicity by dynamic vapor sorption (DVS) analysis; type: physicochemical; conditions: for hygroscopicity: DVS
Protocol: Dynamic Vapor Sorption (DVS) curves of the polymorphs are measured on SMS DVS Intrinsic at 0-95% RH and 25° C.
The compound stably exists as a nonahydrate by dynamic vapor sorption analysis. It forms monohydrate under the scope of relative humidity (RH) from 20% to 50%. It forms dihydrate under the scope of relative humidity (RH) from 70% to 100%. It could forms polyhydrate with further increased relative humidity (RH).
Under the scope of relative humidity (RH) from 5% to 95%, the hygroscopicity of the intermediate A of pyrroloquinoline quinine lithium salt and the crystalline form B of pyrroloquinoline quinine lithium salt from example 1 is measured by dynamic vapor sorption analysis. […] The crystalline solid is not good. The hygroscopicity of the crystalline form B of pyrroloquinoline quinine lithium salt is 8.4% and 13.9% under the relative humidity (RH) of 65% and 80%, respectively. […] The crystalline solid is not good.

[2] = tested on: glycogen synthase kinase-3 (GSK-3); conditions: background statement, no data; cited from earlier work
[3] = 0.375 mg/kg daily for one month

COc1cc2c(cc1OC)C(=O)C(CC1CCN(Cc3ccccc3)CC1)C2 (stereo not shown) [Aricept, reference compound]
Adjusted average distance of approaching to platform (APP/PS1 transgenic mice; 1.5 mg/kg daily for one month): 582.7 mm
Swimming path, I quadrant occupancy of platform (APP/PS1 transgenic mice; 1.5 mg/kg daily for one month): 2730.8 mm
first time of crossing platform (APP/PS1 transgenic mice; 1.5 mg/kg daily for one month): 30.7 s
time spent of IV quadrant (APP/PS1 transgenic mice; 1.5 mg/kg daily for one month): 21.7 s
time, I quadrant occupancy of platform (APP/PS1 transgenic mice; 1.5 mg/kg daily for one month): 9.3 s
times of crossing platform (APP/PS1 transgenic mice; 1.5 mg/kg daily for one month): 1.6

O=C([O-])c1cc(C(=O)[O-])c2c(n1)C(=O)C(=O)c1cc(C(=O)[O-])[nH]c1-2.[Li+].[Li+].[Li+] [PQQ-Li, trilithium derivative of pyrroloquinoline quinine]
Adjusted average distance of approaching to platform (APP/PS1 transgenic mice; [3]): 762.6 mm
Swimming path, I quadrant occupancy of platform (APP/PS1 transgenic mice; [3]): 961.6 mm
first time of crossing platform (APP/PS1 transgenic mice; [3]): 44.9 s
time spent of IV quadrant (APP/PS1 transgenic mice; [3]): 12.4 s
time, I quadrant occupancy of platform (APP/PS1 transgenic mice; [3]): 2.8 s
times of crossing platform (APP/PS1 transgenic mice; [3]): 0.8
Adjusted average distance of approaching to platform (APP/PS1 transgenic mice; 0.75 mg/kg daily for one month): 674.9 mm
Swimming path, I quadrant occupancy of platform (APP/PS1 transgenic mice; 0.75 mg/kg daily for one month): 2029.9 mm
first time of crossing platform (APP/PS1 transgenic mice; 0.75 mg/kg daily for one month): 31.3 s
time spent of IV quadrant (APP/PS1 transgenic mice; 0.75 mg/kg daily for one month): 15.8 s
time, I quadrant occupancy of platform (APP/PS1 transgenic mice; 0.75 mg/kg daily for one month): 6.4 s
times of crossing platform (APP/PS1 transgenic mice; 0.75 mg/kg daily for one month): 1.6
Adjusted average distance of approaching to platform (APP/PS1 transgenic mice; 1.5 mg/kg daily for one month): 605.6 mm
Swimming path, I quadrant occupancy of platform (APP/PS1 transgenic mice; 1.5 mg/kg daily for one month): 2653.3 mm
first time of crossing platform (APP/PS1 transgenic mice; 1.5 mg/kg daily for one month): 22.7 s
time spent of IV quadrant (APP/PS1 transgenic mice; 1.5 mg/kg daily for one month): 17.7 s
time, I quadrant occupancy of platform (APP/PS1 transgenic mice; 1.5 mg/kg daily for one month): 8.9 s
times of crossing platform (APP/PS1 transgenic mice; 1.5 mg/kg daily for one month): 2.2
Adjusted average distance of approaching to platform (APP/PS1 transgenic mice; 3 mg/kg daily for one month): 572.5 mm
Swimming path, I quadrant occupancy of platform (APP/PS1 transgenic mice; 3 mg/kg daily for one month): 2636.1 mm
first time of crossing platform (APP/PS1 transgenic mice; 3 mg/kg daily for one month): 21.8 s
time spent of IV quadrant (APP/PS1 transgenic mice; 3 mg/kg daily for one month): 19.5 s
time, I quadrant occupancy of platform (APP/PS1 transgenic mice; 3 mg/kg daily for one month): 9.2 s
times of crossing platform (APP/PS1 transgenic mice; 3 mg/kg daily for one month): 2.3
dose dependence of effects in Morris water maze test (APP/PS1 transgenic mice; APP/PS1 transgenic mice, 0.375-3 mg/kg): good dose-dependent effects
effect on spatial memory and cognitive impairment (APP/PS1 transgenic mice; APP/PS1 transgenic mice, Morris water maze test): significantly improved spatial memory and cognitive impairment
hydrate form in which the compound stably exists ([1]; dynamic vapor sorption analysis): nonahydrate
hygroscopicity variety under the normal moist environment for storage ([1]; listed as crystalline form B of pyrroloquinoline quinine lithium salt): 5-10%
hydrate form ([1]; relative humidity (RH) from 20% to 50%): monohydrate
hydrate form ([1]; relative humidity (RH) from 70% to 100%): dihydrate
hygroscopicity ([1]; relative humidity (RH) of 65%, listed as crystalline form B of pyrroloquinoline quinine lithium salt): 8.4%
hygroscopicity ([1]; relative humidity (RH) of 80%, listed as crystalline form B of pyrroloquinoline quinine lithium salt): 13.9%

O=C([O-])c1cc(C(=O)[O-])c2c(n1)C(=O)C(=O)c1cc(C(=O)[O-])[nH]c1-2.[Li+].[Li+].[Li+] [Pyrroloquinoline quinine lithium salt, trilithium derivative of pyrroloquinoline quinine]
effect on glycogen synthase kinase-3 activities (GSK-3) [2]: suppress the glycogen synthase kinase-3 activities

O=C([O-])c1cc(C(=O)[O-])c2c(n1)C(=O)C(=O)c1cc(C(=O)[O-])[nH]c1-2.[Li+].[Li+].[Li+] [trilithium derivative of pyrroloquinoline quinine, reference compound]
crystalline solid (assessment in words) ([1]; after the hygroscopicity comparison): not good
hygroscopicity variety under the normal moist environment for storage [1]: 5-25%
hygroscopicity ([1]; relative humidity (RH) of 65%): 25.3%
hygroscopicity ([1]; relative humidity (RH) of 80%): 32.6%
